{"source": "patent US20190307843A1", "about": "“SINGLE DOSE METHODS FOR PREVENTING AND TREATING FUNGAL INFECTIONS” (Cidara Therapeutics, Inc., priority 2016, published 2019)", "key": {"[1]": {"tested_on": "Aspergillus fumigatus (ATCC 13073)", "assay": "Neutropenic mouse aspergillosis model, survival", "type": "in vivo", "settings": "AmB 2 mg/kg IP one dose; 10 days"}, "[2]": {"tested_on": "C. auris", "assay": "Murine model of disseminated candidiasis, C. auris infection, kidney CFU and survival", "type": "in vivo, Candida auris", "settings": "amphotericin B 0.3 mg/kg IP, 2 doses; Day 14"}, "[3]": {"tested_on": "Aspergillus fumigatus (ATCC 13073)", "assay": "Prophylaxis, neutropenic ICR mouse disseminated aspergillosis model, survival", "settings": "amphotericin B at 3 mg/kg IP administered one hour after infection"}, "[4]": {"tested_on": "C. albicans", "assay": "In vitro susceptibility testing (CLSI M27-A3), C. albicans", "type": "cell-based", "settings": "Candida albicans, 24 h", "experimental": "(§1) Ten clinical Candida strains were used for the in vivo treatment studies, including four C. albicans, three C. glabrata, and three C. parapsilosis strains (Table 15). This group was selected to encompass phenotypic variability in susceptibility to triazoles and echinocandins and based on similar fitness in the animal model as defined by the amount of growth in control animals over 24 h. The organisms were maintained, grown, and quantified on Sabouraud's dextrose agar (SDA) plates.\n(§2) In vitro susceptibility testing. All isolates were tested in accordance with the standards in CLSI document M27-A3. The MICs were determined visually after 24 h of incubation as the lowest concentration of drug that causes a significant diminution (50%) of growth compared to controls. MICs were determined on three separate occasions in duplicate."}, "[5]": {"tested_on": "C. glabrata", "assay": "In vitro susceptibility testing (CLSI M27-A3), C. glabrata", "type": "cell-based, Candida glabrata", "settings": "Nakaseomyces glabratus, 24 h", "experimental": "as §1, §2"}, "[6]": {"tested_on": "C. parapsilosis", "assay": "In vitro susceptibility testing (CLSI M27-A3), C. parapsilosis", "type": "cell-based, Candida parapsilosis", "settings": "Lodderomyces parapsilosis, 24 h", "experimental": "as §1, §2"}, "[7]": {"tested_on": "A. fumigatus AF293", "assay": "Pulmonary aspergillosis, prophylaxis, neutropenic ICR mice (Examples 17, 18), survival", "type": "in vivo, Aspergillus fumigatus", "experimental": "Intranasal infection with A. fumigatus AF293 (10^5 CFU/mouse) on Day 0. Prophylaxis CD101 as a single dose (IP; 5, 10, 20 mg/kg) or posaconazole (PO; 2 and 10 mg/kg) 1 day prior to infection. Survival monitored for 10 days.\nIntranasal challenge with A. fumigatus AF293 (10^5 CFU/mouse) was initiated on Day 0 and prophylaxis with CD101 as a single dose (IP; 5, 10, 20 mg/kg) or posaconazole (PO; 2 and 10 mg/kg) was started 1 day prior to infection. Survival was monitored for 10 days."}, "[8]": {"tested_on": "A. fumigatus AF293", "assay": "Murine model of pulmonary aspergillosis (Example 19), terminal lung burden", "type": "in vivo, Aspergillus fumigatus", "experimental": "A secondary endpoint for the study was terminal lung tissue burden. Immediately following confirmation of death, carcasses were frozen at −20° C. prior to tissue dissection and processing. The frozen carcasses were thawed at room temperature, the lungs removed and placed into pre-weighed bead-beating tubes containing 2 mL of PBS and subjected to mechanical disruption. Organ homogenates were diluted further in PBS and quantitatively cultured for A. fumigatus onto SABC and incubated at 30° C. for 24-48 hours.\n2. Lung tissue burden data were analysed using the non-parametric Kruskal-Wallis test and if this was statistically significant all pairwise comparisons were analyzed (Conover-Inman)."}, "[9]": {"tested_on": "A. fumigatus AF293", "assay": "Murine model of pulmonary aspergillosis (Example 19), survival", "settings": "for Mean Survival / Median Survival: Day 1 pre-infection"}, "[10]": {"settings": "Posaconazole 10 mg/kg PO Day −1"}, "[11]": {"settings": "Vehicle vs. Posaconazole 10 mg/kg"}}, "note": "Where “and” joins values, the source holds several entries; their conditions need not be identical. Equal entries are not always repeated. Starred links: 1 amine or outer side, 2 acyl side, 3 side chain; linkers in the order of their positions; H or OH if unused. Positions of bridges follow the written chain, without caps; N, C: chain ends. Non-standard residues stand in square brackets, D forms with d. Residues, ends and D or L forms follow the SMILES beside them. *: point of attachment. pTerphenylCO(4''-OnC5H11) = CCCCCOc1ccc(-c2ccc(-c3ccc(C(=O)*)cc3)cc2)cc1; Orn(4R-OH,5R-OH) = O=C([C@H](C[C@@H](O)[C@@H](O)N[*:3])N[*:1])[*:2]; hTyr(3S-OH,4S-OH) = N[C@H](C(=O)O)[C@H](O)[C@@H](O)c1ccc(O)cc1; Pro(3S-OH,4S-Me) = C[C@H]1CN[C@H](C(=O)O)[C@H]1O; Hyp = O=C(O)[C@@H]1C[C@@H](O)CN1"}
{"smiles": "C[C@@H]1[C@H](O)[C@@H](C)/C=C/C=C/C=C/C=C/C=C/C=C/C=C/[C@H](O[C@@H]2O[C@H](C)[C@@H](O)[C@H](N)[C@@H]2O)C[C@@H]2O[C@](O)(C[C@@H](O)C[C@@H](O)[C@H](O)CC[C@@H](O)C[C@@H](O)CC(=O)O[C@H]1C)C[C@H](O)[C@H]2C(=O)O", "note": "[AmB, amphotericin B, reference compound]", "values": [{"measurement": "survival vs vehicle", "setting": "[1]", "value": "significantly longer survival than vehicle"}, {"measurement": "percent survival at the end of the study", "setting": "[2]", "value": 30, "unit": "%"}, {"measurement": "14-day survival", "setting": "[3]", "value": "significant increase in the 14-day survival"}]}
{"smiles": "CCCCCOc1ccc(-c2ccc(-c3ccc(C(=O)N[C@H]4C[C@@H](O)[C@@H](O)NC(=O)[C@@H]5[C@@H](O)[C@@H](C)CN5C(=O)[C@H]([C@@H](C)O)NC(=O)[C@H]([C@H](O)[C@@H](O)c5ccc(O)cc5)NC(=O)[C@@H]5C[C@@H](O)CN5C(=O)[C@H]([C@@H](C)O)NC4=O)cc3)cc2)cc1", "note": "[Anidulafungin, anidulafungin, reference compound] ({pTerphenylCO(4''-OnC5H11)}-[Orn(4R-OH,5R-OH)]T[Hyp][hTyr(3S-OH,4S-OH)]T[Pro(3S-OH,4S-Me)]; lactam 1-C)", "values": [{"measurement": "MIC", "setting": "[4]; C. albicans 98-17", "value": 0.03, "unit": "µg/mL"}, {"measurement": "MIC", "setting": "[4]; C. albicans 98-210", "value": 0.015, "unit": "µg/mL"}, {"measurement": "MIC", "setting": "[4]; C. albicans 580", "value": 0.015, "unit": "µg/mL"}, {"measurement": "MIC", "setting": "[4]; C. albicans K-1, 50% growth diminution", "value": 0.015, "unit": "µg/mL"}, {"measurement": "MIC", "setting": "[5]; C. glabrata 5592", "value": 0.06, "unit": "µg/mL"}, {"measurement": "MIC", "setting": "[5]; C. glabrata 10956", "value": 1, "unit": "µg/mL"}, {"measurement": "MIC", "setting": "[5]; C. glabrata 35315", "value": 0.25, "unit": "µg/mL"}, {"measurement": "MIC", "setting": "[6]; C. parapsilosis 20423.072", "value": 1, "unit": "µg/mL"}, {"measurement": "MIC", "setting": "[6]; C. parapsilosis 20477.048", "value": 2, "unit": "µg/mL"}, {"measurement": "MIC", "setting": "[6]; C. parapsilosis 20519.069", "value": 4, "unit": "µg/mL"}]}
{"smiles": "CC[C@@H]([C@H](C)O)n1ncn(-c2ccc(N3CCN(c4ccc(OC[C@@H]5CO[C@@](Cn6cncn6)(c6ccc(F)cc6F)C5)cc4)CC3)cc2)c1=O", "note": "[Posaconazole, posaconazole]", "values": [{"measurement": "survival", "setting": "[7]; posaconazole 2 mg/kg PO 1 day prior to infection", "value": "no survivors"}, {"measurement": "survival rate relative to control", "setting": "[7]; posaconazole 10 mg/kg PO 1 day prior to infection", "value": "statistically-significant increase in survival rate relative to control"}, {"measurement": "Group Geometric mean (lung burden)", "setting": "[8]; Posaconazole 2 mg/kg PO Day −1", "value": "1.14 × 10^4 CFU/g"}, {"measurement": "Log10 Group Geometric mean (lung burden)", "setting": "[8]; Posaconazole 2 mg/kg PO Day −1", "value": 4.06, "unit": "CFU/g"}, {"measurement": "Log10 reduction from vehicle control", "setting": "[8]; Posaconazole 2 mg/kg PO Day −1", "value": 0.11, "unit": "CFU/g"}, {"measurement": "Group Geometric mean (lung burden)", "setting": "[8]; [10]", "value": "2.75 × 10^3 CFU/g"}, {"measurement": "Log10 Group Geometric mean (lung burden)", "setting": "[8]; [10]", "value": 3.44, "unit": "CFU/g"}, {"measurement": "Log10 reduction from vehicle control", "setting": "[8]; [10]", "value": 0.73, "unit": "CFU/g"}, {"measurement": "survival time post infection, range", "setting": "[9]; Posaconazole 2 mg/kg PO once", "value": "69 to 114", "unit": "h"}, {"measurement": "Mean Survival", "setting": "[9]; Posaconazole 2 mg/kg PO once", "value": 77.5, "unit": "h"}, {"measurement": "Median Survival", "setting": "[9]; Posaconazole 2 mg/kg PO once", "value": 69.0, "unit": "h"}, {"measurement": "survival time post infection, range", "setting": "[9]; Posaconazole 10 mg/kg PO once", "value": "69 to 240", "unit": "h"}, {"measurement": "Mean Survival", "setting": "[9]; Posaconazole 10 mg/kg PO once", "value": "212 h and 211.5 h"}, {"measurement": "Median Survival", "setting": "[9]; Posaconazole 10 mg/kg PO once", "value": "cannot estimate"}, {"measurement": "mice surviving to the end of the study", "setting": "[9]; Posaconazole 10 mg/kg PO, 6/treatment group, 10 days", "value": 5}, {"measurement": "Wilcoxon (Peto-Prentice) test, survival", "setting": "[9]; Vehicle vs. Posaconazole 2 mg/kg", "value": "P = 0.0391"}, {"measurement": "Log-Rank test, survival", "setting": "[9]; [11]", "value": "P = 0.0182"}, {"measurement": "Wilcoxon (Peto-Prentice) test, survival", "setting": "[9]; [11]", "value": "P = 0.0441"}, {"measurement": "survival compared to the vehicle mice", "setting": "[9]; posaconazole 2 mg/kg once one day pre-infection", "value": "did not show any improvement in survival"}, {"measurement": "mice surviving to the end of the study", "setting": "[9]; posaconazole 10 mg/kg once 1 day pre-infection", "value": "> 80", "unit": "%"}]}
